# Data as given in patent US20030037344A1, “METHOD FOR EVALUATING THE ABILITY OF A COMPOUND TO INHIBIT NEUROTOXICITY” (priority 1997, published 2003).
# Test system: PC12 cells stably transfected with RAGE and transiently transfected with mutant presenilin-2 (N141 mutant)
# Experiment: TUNEL apoptosis assay in transfected PC12 cells exposed to Aβ
# Format: cell-based
# Conditions: Aβ 0.3 and 1 μM, 24 hrs; cells co-transfected to express mutant presenilin-2 and RAGE
# Method: Induction of apoptosis. For apoptosis studies, PC12 cultures, either mock-transfected (control), stably transfected with the RAGE-bearing construct or stably transfected with the RAGE-bearing construct and transiently transfected with the mutant presenilin-2 bearing construct, and were then exposed to Aβ (0.3 or 1 μM) for 24 hrs. At the end of this time, apoptosis was determined using the TUNEL assay by counting positively staining nuclei per twenty high-power fields. Under these conditions, mutant presenilin-2 by itself has little effect on apoptosis, as shown previously (FIG. 3).
# Generation of Stable Transfected Cells. PC12 cells, grown as described and transfected with pcDNA3-RAGE (the latter comprised of the human RAGE cDNA) (Yan, et al., 1996) using lipofectamine (12 μg/ml) according to the manufacturer's instructions (Gibco-BRL). Cells were maintained in the presence of G418. Transient transfection was performed with a vector including mutant presenilin-2 (N141 mutant) (Wolozin et al., 1996), using lipofectamine, as described (Wolozin et al., 1996). Immunoblotting and immunostaining of PC12 cells for RAGE was performed as described previously (Yan, et al., 1996).
# Apoptosis assay. The terminal deoxynucleotidyl transferase-mediated dUTP nick end labeling (TUNEL) assay was performed as described using a kit from Travigen, a peroxide-based TACS-TdTkit (Woolozin, et al., 1996). […]
substance,measurement,value
"Aβ: Aβ (comprised of residues 1-42), synthesized, HPLC purified, purchased from a commercial supplier","apoptosis (TUNEL, positively staining nuclei per twenty high-power fields)",dramatic increase in apoptosis
